Converted amounts (≈) assume the structure as drawn.
Columns and labels:
[1] = molecular target: A. aeolicus MraY (AaMraY) (Aquifex aeolicus, UniProt O66465); assay: Fluorescence-based in vitro MraY assay, A. aeolicus MraY; assay type: biochemical
[2] = test system: S. aureus subsp. aureus (Newman strain); assay: Antimicrobial activity; settings: for activity against S. aureus (in words): growth inhibition
[3] = test system: E. coli imp mutant; settings: cited from earlier work
[4] = test system: Staphylococcal; settings: cited from earlier work
[5] = test system: S. aureus; settings: cited from earlier work

Sequence of A. aeolicus MraY (AaMraY) (O66465 whole entry): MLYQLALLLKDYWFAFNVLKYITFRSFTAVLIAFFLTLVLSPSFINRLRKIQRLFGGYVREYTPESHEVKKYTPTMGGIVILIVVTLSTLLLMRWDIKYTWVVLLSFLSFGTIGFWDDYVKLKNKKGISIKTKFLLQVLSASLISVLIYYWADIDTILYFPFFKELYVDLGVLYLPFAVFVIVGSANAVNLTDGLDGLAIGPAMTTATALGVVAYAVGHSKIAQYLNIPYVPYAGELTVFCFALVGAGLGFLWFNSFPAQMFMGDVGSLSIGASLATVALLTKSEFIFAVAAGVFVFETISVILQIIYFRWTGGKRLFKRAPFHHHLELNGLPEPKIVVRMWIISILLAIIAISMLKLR

CO[C@H]1[C@H](O[C@H]([C@H]2O[C@@H](n3ccc(=O)[nH]c3=O)[C@H](O)[C@@H]2O)[C@H](NCCCNC(=O)[C@@H](NC(=O)[C@@H](NC(=O)N[C@H](C(=O)O)C(C)C)[C@@H]2CCNC(=N)N2)[C@@H](OC(=O)CCCCCCCCCCCCC(C)C)C(C)C)C(=O)O)O[C@H](CN)[C@H]1O [Compound 1, muraymycin B8]
IC50 [1]: 0.068 nM | MIC ([2]; Staphylococcus aureus, NEWMAN, 16 h, read-out: S. aureus growth inhibition MIC, Newman strain, 37 °C, 16 h): 2 to 6 µg/mL (≈ 1.69 to 5.07 µM)

CO[C@H]1[C@H](O[C@H]([C@H]2O[C@@H](n3ccc(=O)[nH]c3=O)[C@H](O)[C@@H]2O)[C@H](NCCCNC(=O)[C@@H](NC(=O)[C@@H](NC(=O)N[C@H](C(=O)O)C(C)C)[C@@H]2CCNC(=N)N2)[C@@H](OC(=O)CCCCCCCCCCC(C)C)C(C)C)C(=O)O)O[C@H](CN)[C@H]1O [Compound 2, muraymycin B9]
S. aureus growth inhibition MIC ([2]; Newman strain, 37 °C, 16 h): 2 to 6 µg/mL

CO[C@H]1[C@H](O[C@H]([C@H]2O[C@@H](n3ccc(=O)[nH]c3=O)[C@H](O)[C@@H]2O)[C@H](NCCCNC(=O)[C@@H](NC(=O)[C@@H](NC(=O)N[C@H](C(=O)O)C(C)C)[C@@H]2CCNC(=N)N2)[C@@H](O)C(C)C)C(=O)O)O[C@H](CNC(C)=O)[C@H]1O [Compound 3, 16-N-acetyl-muraymycin C1]
activity against S. aureus (in words) [2]: inactive

CO[C@H]1[C@H](O[C@H]([C@H]2O[C@@H](n3ccc(=O)[nH]c3=O)[C@H](O)[C@@H]2O)[C@H](NCCCNC(=O)[C@@H](NC(=O)[C@@H](NC(=O)N[C@H](C(=O)O)C(C)C)[C@@H]2CCNC(=N)N2)[C@@H](OC(=O)CCCCCCCCCCCCN(O)C(=N)N)C(C)C)C(=O)O)O[C@H](CN)[C@H]1O [Muraymycin A1]
MIC against E. coli imp mutant [3]: < 0.03 µg/mL | MIC against Staphylococcal [4]: 2 to 16 µg/mL

CO[C@H]1[C@H](O[C@H]([C@H]2O[C@@H](n3ccc(=O)[nH]c3=O)[C@H](O)[C@@H]2O)[C@H](NCCCNC(=O)[C@@H](NC(=O)[C@@H](NC(=O)N[C@H](C(=O)O)C(C)C)[C@@H]2CCN=C(N)N2)[C@@H](OC(=O)CCCCCCC(C)C)C(C)C)C(=O)O)O[C@H](CN)[C@H]1O [muraymycin B2]
MIC against S. aureus [5]: > 32 µg/mL

CO[C@H]1[C@H](O[C@H]([C@H]2O[C@@H](n3ccc(=O)[nH]c3=O)[C@H](O)[C@@H]2O)[C@H](NCCCNC(=O)[C@@H](NC(=O)[C@@H](NC(=O)N[C@H](C(=O)O)C(C)C)[C@@H]2CCN=C(N)N2)[C@@H](OC(=O)CCCCC(C)C)C(C)C)C(=O)O)O[C@H](CN)[C@H]1O [muraymycin B6]
MIC against S. aureus [5]: > 32 µg/mL

CO[C@H]1[C@H](O[C@H]([C@H]2O[C@@H](n3ccc(=O)[nH]c3=O)[C@H](O)[C@@H]2O)[C@H](NCCCNC(=O)[C@@H](NC(=O)[C@@H](NC(=O)N[C@H](C(=O)O)C(C)C)[C@@H]2CCNC(=N)N2)[C@@H](O)C(C)C)C(=O)O)O[C@H](CN)[C@H]1O [muraymycin C1]
activity against S. aureus (in words) [2]: inactive

Reference: publication PMC6434714 (Journal of natural products, 2018)
